Inconclusive results are not listed. Activity calls are given as the source filed them.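 How the source made its calls: active means fitted IC50 within a set limit above the top dose, meaning light loss from cell killing; inconclusive means flat curve with 30 to 70% effect, or poor fit; inactive means IC50 beyond that set limit.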
system: NIH3T3 viability, ATP luminescence (CellTiter-Glo), 90 h; test: cytotoxicity toward NIH3T3 fibroblasts, dose response, counter-screen, cell-based, ATP luminescence, mouse fibroblasts (AID 2010)

Structure (SMILES)	IC50
O=[N+]([O-])C(/C=C(\Cl)[N+](=O)[O-])=C(N1CCCCC1)N1CCCCC1	> 6 µM (inactive)
Cc1ccccc1OCc1n(CC(=O)OC2CC(C)CCC2C(C)C)c2ccccc2[n+]1C (stereo not given)	> 6 µM (inactive)
CC(C)N1C(=O)/C(=C\c2nc3ccccc3c(=O)n2-c2ccccc2)c2ccccc21	> 6 µM (inactive)
O=[N+]([O-])C(/C=C(/Cl)[N+](=O)[O-])=C(N1CCCCC1)N1CCCCC1	> 6 µM (inactive)
C#CCOCCOCCOCCNc1nc(N2CCN(C(=O)CCCCCCCCCCNC(=O)Cn3cc(C[C@@H](C)O)nn3)CC2)nc(N2CCN(C(=O)CCCCCCCCCCNC(=O)[C@H](CCCN=C(N)N)n3cc(C[C@@H](C)CC)nn3)CC2)n1	> 6 µM (inactive)
